Source: patent US4455290A, “Inhibition of fibrin polymerization by a peptide isolated from fibrin Fragment D1” (Research Corporation, priority 1981, dated 1984)
Peptide text beside a SMILES is read from it.

How the values were obtained:
bovine serum albumin = bovine serum albumin (Bos taurus, UniProt P02769); experiment: Equilibrium binding of 125-I D1 Peptide, bovine serum albumin
Text: Acta 133, 376-379 (1979).

[1] = target: T1, batroxobin fibrin monomer (Homo sapiens, UniProt P02671+P02675+P02679); experiment: Inhibition of fibrin monomer polymerization (absorbance at 350 nm), batroxobin fibrin monomer; assay type: biochemical
T1 construct: fibrin monomer which was formed by batroxobin (lacking fibrinopeptide A); made in house; host or cells: not recombinant: made from fibrinogen by treatment with batroxobin (Bothrops atrox venom enzyme)
T1 sequence (P02671 36-629 isoform P02671-2): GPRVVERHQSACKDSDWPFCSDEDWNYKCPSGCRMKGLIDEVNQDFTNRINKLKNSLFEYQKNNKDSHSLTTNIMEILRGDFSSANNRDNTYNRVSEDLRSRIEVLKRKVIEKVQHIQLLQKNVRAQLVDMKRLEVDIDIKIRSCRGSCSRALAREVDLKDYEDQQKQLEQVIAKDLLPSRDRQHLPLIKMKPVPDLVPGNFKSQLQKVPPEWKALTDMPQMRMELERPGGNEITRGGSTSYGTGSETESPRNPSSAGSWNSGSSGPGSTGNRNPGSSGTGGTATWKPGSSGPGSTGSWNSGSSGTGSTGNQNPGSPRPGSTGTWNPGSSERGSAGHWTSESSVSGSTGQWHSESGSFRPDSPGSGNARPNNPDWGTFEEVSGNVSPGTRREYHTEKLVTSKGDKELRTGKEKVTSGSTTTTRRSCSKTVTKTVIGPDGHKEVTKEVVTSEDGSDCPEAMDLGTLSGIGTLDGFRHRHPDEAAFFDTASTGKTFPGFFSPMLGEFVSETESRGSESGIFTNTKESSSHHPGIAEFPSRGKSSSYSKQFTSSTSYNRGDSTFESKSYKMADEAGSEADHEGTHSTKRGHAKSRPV
T1 sequence (P02675 31-491): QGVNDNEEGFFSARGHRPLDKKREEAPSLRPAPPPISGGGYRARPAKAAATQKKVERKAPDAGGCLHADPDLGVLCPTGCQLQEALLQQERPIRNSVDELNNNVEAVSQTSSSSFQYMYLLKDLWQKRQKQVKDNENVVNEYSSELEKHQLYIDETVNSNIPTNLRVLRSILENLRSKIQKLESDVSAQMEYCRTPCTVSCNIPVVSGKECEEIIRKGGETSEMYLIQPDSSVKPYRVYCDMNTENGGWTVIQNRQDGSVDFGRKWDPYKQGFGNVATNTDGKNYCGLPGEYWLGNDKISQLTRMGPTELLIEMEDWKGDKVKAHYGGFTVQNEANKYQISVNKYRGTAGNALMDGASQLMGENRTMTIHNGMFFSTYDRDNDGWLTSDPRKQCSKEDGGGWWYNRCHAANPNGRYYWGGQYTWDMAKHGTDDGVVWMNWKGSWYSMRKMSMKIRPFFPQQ
T1 sequence (P02679 27-437 isoform P02679-2): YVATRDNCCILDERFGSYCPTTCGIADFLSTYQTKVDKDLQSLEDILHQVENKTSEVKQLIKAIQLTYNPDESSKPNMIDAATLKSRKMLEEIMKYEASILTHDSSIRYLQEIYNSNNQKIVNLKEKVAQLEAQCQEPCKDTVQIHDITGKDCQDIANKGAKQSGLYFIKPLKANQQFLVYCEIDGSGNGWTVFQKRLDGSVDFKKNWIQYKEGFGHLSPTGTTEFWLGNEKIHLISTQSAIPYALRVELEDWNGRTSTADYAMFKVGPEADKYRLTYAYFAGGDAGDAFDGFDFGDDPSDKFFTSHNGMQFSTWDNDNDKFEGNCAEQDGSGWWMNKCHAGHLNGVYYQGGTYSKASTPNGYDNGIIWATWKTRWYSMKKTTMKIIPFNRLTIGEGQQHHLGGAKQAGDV
Experimental: Fibrin monomer was prepared according to the method of Belitser et al, Biochem. Biophys. Acta 154, 367-375 (1968) using either thrombin or batroxobin (an enzyme from the venom of Bothrops atrox). The polymerization of fibrin monomer which was formed by batroxobin (lacking fibrinopeptide A) or by thrombin (lacking fibrinopeptides A and B) was inhibited by D1 Peptide. Polymerization was measured spectrophotometrically at 350 nm as has been described in Budzynski, Biochem. Biophys. Acta 584, 284-287 (1979). […] At zero time the recorder was started and 0.01 ml of fibrin monomer (1.5 mg/ml in 0.02M acetic acid) was added, the cells were inverted, and the increase in absorbance at 350 nm was measured continuously for 15 min or until plateau levels were reached. For batroxobin fibrin monomer 0.15 ml of buffer or buffer containing D1 Peptide was mixed with 0.05 ml of batroxobin fibrin monomer (1.5 mg/ml in 0.02M acetic acid). The initial rate of polymerization was calculated from the slope of the steepest part of the curve and expressed as the increase in absorbance per min (A350 ·min^-1).
In order to assess the effect of D1 Peptide on fibrin monomer polymerization over a wide range of concentrations, batroxobin fibrin monomer concentration was varied from 3.3×10^-8 M to 1.75×10^-7 M and the maximum rate of polymerization measured in the absence or presence of 2.5×10^-7 M D1 Peptide (FIG. 5). […]

[2] = Elimination from the blood; assay type: in vivo; details: no method described

Chain of bovine serum albumin (P02769 25-607): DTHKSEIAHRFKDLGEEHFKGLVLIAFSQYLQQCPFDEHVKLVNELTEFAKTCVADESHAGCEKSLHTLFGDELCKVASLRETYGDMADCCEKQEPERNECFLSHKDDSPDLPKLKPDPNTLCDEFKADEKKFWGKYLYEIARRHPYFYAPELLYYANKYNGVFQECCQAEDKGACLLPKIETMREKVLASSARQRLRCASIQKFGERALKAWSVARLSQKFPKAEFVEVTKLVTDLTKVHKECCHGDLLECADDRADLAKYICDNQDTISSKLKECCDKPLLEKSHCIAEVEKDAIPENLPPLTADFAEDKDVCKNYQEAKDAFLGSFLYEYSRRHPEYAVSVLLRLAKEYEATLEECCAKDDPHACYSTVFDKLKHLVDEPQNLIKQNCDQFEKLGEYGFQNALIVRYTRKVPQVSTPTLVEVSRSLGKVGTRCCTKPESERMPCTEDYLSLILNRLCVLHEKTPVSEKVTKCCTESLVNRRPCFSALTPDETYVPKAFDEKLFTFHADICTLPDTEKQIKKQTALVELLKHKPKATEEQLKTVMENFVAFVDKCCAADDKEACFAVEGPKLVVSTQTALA

Structure (SMILES): CC[C@H](C)[C@H](NC(=O)[C@H](CCCCN)NC(=O)[C@H](CCSC)NC(=O)[C@@H](NC(=O)[C@@H](NC(=O)[C@H](CCCCN)NC(=O)[C@H](CCCCN)NC(=O)[C@H](CCSC)NC(=O)[C@H](CO)NC(=O)[C@H](Cc1ccc(O)cc1)NC(=O)[C@H](Cc1c[nH]c2ccccc12)NC(=O)[C@H](CCCNC(=N)N)NC(=O)[C@@H](N)[C@@H](C)O)[C@@H](C)O)[C@@H](C)O)C(=O)N[C@H](C(=O)N1CCC[C@H]1C(=O)N[C@@H](Cc1ccccc1)C(=O)N[C@@H](CC(N)=O)C(=O)N[C@@H](CCCNC(=N)N)C(=O)N[C@@H](CC(C)C)C(=O)N[C@H](C(=O)N[C@H](C(=O)NCC(=O)N[C@@H](CCC(=O)O)C(=O)NCC(=O)N[C@@H](CCC(N)=O)C(=O)N[C@@H](CCC(N)=O)C(=O)N[C@@H](Cc1c[nH]cn1)C(=O)N[C@@H](Cc1c[nH]cn1)C(=O)N[C@@H](CC(C)C)C(=O)NCC(=O)NCC(=O)N[C@@H](C)C(=O)N[C@@H](CCCCN)C(=O)N[C@@H](CCC(N)=O)C(=O)N[C@@H](C)C(=O)NCC(=O)N[C@@H](CC(=O)O)C(=O)N[C@H](C(=O)O)C(C)C)[C@@H](C)CC)[C@@H](C)O)[C@@H](C)CC [D1 Peptide] (H-TRWYSMKKTTMKIIPFNRLTIGEGQQHHLGGAKQAGDV-OH)
- binding to bovine serum albumin (bovine serum albumin): no measurable binding
- mode of inhibition of polymerization ([1]; batroxobin fibrin monomer 3.3×10^-8 M to 1.75×10^-7 M): competitive inhibitor
- concentration of fibrin monomer necessary to achieve the same rate of polymerization (apparent [FM]) ([1]; maximum rate 0.2 A350·min^-1, D1 Peptide 2.6×10^-7 M, 7.8×10^-8 M without peptide): 142 nM
- elimination from the blood [2]: rapidly eliminated
